{"source": "patent US20110212909A1", "about": "“Use of Ginsenoside Compound K in the Preparation of a Medicament for the Prevention and Treatment of Atherosclerosis” (priority 2008, published 2011)", "key": {"[1]": {"tested_on": "macrophage-derived foam cells of rat abdominal cavity", "assay": "Assay of amount of TC and CE in ox-LDL induced macrophage-derived foam cells", "type": "cell-based", "conditions": "25 μM, 48 hours, rat foam cells, x ± s, n = 5", "protocol": "1. Experiment animal: SD rats, male, 200-250 g, bought from the third Military Medical University Experiment Animal Center.\n2. Reagents: RPMI 1640 culture medium free of phenol red bought from Invitrogen company; LDL (115 mg/mL) bought from Peking Union Medical College; total cholesterol kit and free cholesterol kit bought from Shanghai Mind Bioengineering Limited Company; ginsenoside compound K (hereinafter being called C-K for short. White powders, purity 99%), provided by Kunming Nuowei Jinshen Bioengineering limited company supply (batch number: NTGA070521, details see China invention patent 200710066011. X “a method of preparing rare ginsenoside compound K by streptomycete fermentation of Sanchi saponins”).\nLDL was placed into PBS comprising 10 μM Cu^2+, dialysed at 37° C. for 12 h, then was placed into PBS comprising 0.01% EDTA, and dialysed at 4° C. for 24 hours before stopping oxidization, then was subjected to filtration sterilization, and stored for use.\n4. Culture of macrophage and establishment of foam cells model (available literature: Jia Yi, Li Xiaohui, Xing Mao, Hei Xuefeng, Liu Ya, He Cuiyao. Studies on affect of various combinations of 3 sorts of monomers in total panax notoginsenosides on formation of mouse macrophage-derived foam cells. Journal of China Pharmacy, 2008, 19 (2), 881-883.)\neach rat were intraperitoneally injected with 2 mL RPMI 1640 culture solution free of serum and phenol red, and it was sacrificed by cervical dislocation after 20 minutes, and was soaked in 75% ethanol for 10 minutes, then rat's belly was cut open, and fluids in abdominal cavity were collected, and centrifugated at 750 r/min for 5 minutes, and then cells were collected, and cells concentrations were adjusted to […] by using RPMI 1640 culture solution which were free of phenol red and comprised 10% Fetal Calf Serum. 10 pieces of 6 wells plate was added 1 mL cells suspension per well, and was placed into an incubator of 5% CO2 at 37 °C, and cultured for two hours, then supernatant was discarded, and nonadhesive cells was washed by using PBS. Original culture medium was discarded. Culture was carried out for 48 hours after adding 5 mL culture medium comprising 20 mg/L ox-LDL, and thereby foam cells were formed.\n[…] were divided into ox-LDL model group, pyrrolidine dithiocarbamate (PDTC) (drugs source: Sigma), control group and C-K interference group. Each group had 5 pieces of plates. […]\nCulture solution was aspirated, and lipid in foam cells was extracted by Folch method (reference: Folch J et al, A simple method for the isolation and purification of total lipides from animal tissues. J Biol Chem, 1957, 226 (1): 497-509), according to direction for use of kit.\nData was expressed as x±s, and variance analysis was carried out between groups by SPSS 13.0 software."}, "CD36 mRNA": {"tested_on": "CD36 mRNA", "assay": "Real-time quantitative PCR of CD36 mRNA in foam cells", "type": "cell-based", "conditions": "25 μM, rat foam cells", "protocol": "FIG. 1 provides effects of a ginsenoside compound K (C-K, 25 μM) and pyrrolidine dithiocarbamate (PDTC, 25 μM) on the foam cell CD36 mRNA expression. a: P<0.05, vs foam cell group; b: P<0.05, vs PDTC. PDTC (25 μM) C-K (25 μM) (n=5).\n(1) Material and reagents (the same as Example 2).\n(2) real-time quantitative PCR analysis (a reference method: Zhang Yiguan, Li Xiaohui, Fan Jishan, Zhang Haigang, Li Shuhui, Liao Wenqiang, Pang Yan, Jia Yi. Total panax notoginsenosides suppress atherosclerosis formation in rats by means of antiinflammatory and blood fat regulating action. Progress in Modern Biomedicine. 2007, 27(11): 1601-1607).\nData was expressed as x±s, variance analysis were carried out between groups by SPSS 13.0 software."}}, "note": "Marks after values point to notes of the source that are not given here.", "data": [{"compound": "S=C(S)N1CCCC1", "note": "[PDTC, pyrrolidine dithiocarbamate, reference compound]", "values": [{"measurement": "CE in foam cells", "setting": "[1]; ox-LDL model group 15.24 ± 2.38", "value": "30.63 ± 3.17^a"}, {"measurement": "CE/TC in foam cells", "setting": "[1]; ox-LDL model group 59.56 ± 2.96", "value": "50.29 ± 3.54^a %"}, {"measurement": "TC in foam cells", "setting": "[1]; ox-LDL model group 87.20 ± 2.19", "value": "60.81 ± 2.62^a"}, {"measurement": "change of CD36 mRNA expression in foam cells compared with model group", "setting": "CD36 mRNA", "value": "increased expression"}]}]}
